Measured values as given in patent US20080194524A1, “Compounds For the Inhibition of Undesired Cell Proliferation and Use Thereof” (JERINI AG, priority 2003, published 2008).
pIC50: −log10 of the molar value. Where a SMILES comes first, the peptide text is derived from it. [ ]: non-standard residue; d: D form. The star is where a group is joined. X1 = O=C(O)c1cc(NC(=S)*)ccc1-c1c2ccc(=O)cc-2oc2cc(O)ccc12; 2Nal = N[C@@H](Cc1ccc2ccccc2c1)C(=O)O; Bta = N[C@@H](Cc1csc2ccccc12)C(=O)O; pGlu = O=C1CC[C@@H](C(=O)O)N1; Pip = O=C(O)[C@@H]1CCCCN1; CH2PO3H2 = O=P(O)(O)C*; Ahx = NCCCCCC(=O)O

The molecules below were run against hPin1 (Protein interacting with NIMA (-kinase)) (Homo sapiens, UniProt Q13526) (assay: protease-coupled PPIase assay, hPin1). Conditions: not given.
hPin1 (Protein interacting with NIMA (-kinase)), sequence (Q13526 whole entry): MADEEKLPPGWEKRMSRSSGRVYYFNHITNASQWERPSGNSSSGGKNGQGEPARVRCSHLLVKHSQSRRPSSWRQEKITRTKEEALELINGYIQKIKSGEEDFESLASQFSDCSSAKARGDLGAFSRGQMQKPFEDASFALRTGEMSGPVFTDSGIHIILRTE
Assay type: biochemical
In the case of `NC(=O)[C@H](Cc1ccc2ccccc2c1)NC(=O)[C@@H]1CCCCN1C(=O)[C@H](CSCP(=O)(O)O)NC(=O)[C@H](Cc1csc2ccccc12)NC(=O)CCCCCNC(=S)Nc1ccc(-c2c3ccc(=O)cc-3oc3cc(O)ccc23)c(C(=O)O)c1` [Compound 9] ({X1-Ahx}-[Bta]C(CH2PO3H2)[Pip][2Nal]-NH2), the pIC50 was > 6.00.
In the case of `CC(=O)N[C@@H](Cc1csc2ccccc12)C(=O)N[C@H](CSCP(=O)(O)O)C(=O)N1CCCC[C@H]1C(=O)N[C@@H](Cc1ccc2ccccc2c1)C(N)=O` (stereo in doubt) [Compound 3, {2-(2-Acetylamino-3-benzo[b]thiophen-3-yl-propionylamino)-3-[2-(1-carbamoyl-2-naphthalen-2-yl-ethylcarbamoyl)-piperidin-1-yl]-3-oxo-propylsulfanylmethyl}-phosphonic acid], the pIC50 was > 6.00.
With `NC(=O)[C@H](Cc1ccc2ccccc2c1)NC(=O)[C@@H]1CCCCN1C(=O)[C@H](CSCP(=O)(O)O)NC(=O)[C@@H]1CCC(=O)N1` [Compound 39, {3-[2-(1-Carbamoyl-2-naphthalen-2-yl-ethylcarbamoyl)-piperidin-1-yl]-3-oxo-2-[(5-oxo-pyrrolidine-2-carbonyl)-amino]-propylsulfanyl-methyl}-phosphonic acid] ([pGlu]C(CH2PO3H2)[Pip][2Nal]-NH2) the pIC50 was > 6.00.

Same assay, conditions: hPin1 6 nM; substrate Ac-Ala-Ala-Ser(PO3H2)-Pro-Arg-pNA, trypsin; 35 mM HEPES pH 7.8, 6° C.; read-out: Specificity of the inhibition with rotamases, Target T-1 (IC50 class)
Work on `CNC(=O)CC(SCP(=O)(O)O)C(=O)N1CCCC[C@H]1C(=O)N[C@@H](Cc1ccc2ccccc2c1)C(N)=O` (mixture of isomers) [Compound 69, {2-[2-(1-Carbamoyl-2-naphthalen-2-yl-ethylcarbamoyl)-piperidin-1-yl]-1-methylcarbamoylmethyl-2-oxo-ethylsulfanylmethyl}-phosphonic acid] yielded a pIC50 of 5.00 to 6.00.
`CC(SCP(=O)(O)O)C(=O)N1CCCC[C@H]1C(=O)N[C@@H](Cc1ccc2ccccc2c1)C(N)=O` (stereo in doubt) [Compound 65, {2-[2-(1-Carbamoyl-2-naphthalen-2-yl-ethylcarbamoyl)-piperidin-1-yl]-1-methyl-2-oxo-ethylsulfanylmethyl}-phosphonicacid] was tested, and the pIC50 was 5.00 to 6.00.
`NC(=O)[C@H](Cc1ccc2ccccc2c1)NC(=O)[C@@H]1CCCCN1C(=O)[C@H](CSCP(=O)(O)O)NC(=O)Cc1ccccc1Cl` [Compound 34, {3-[2-(1-Carbamoyl-2-naphthalen-2-yl-ethylcarbamoyl)-piperidin-1-yl]-2-[2-(2-chloro-phenyl)-acetylamino]-3-oxo-propylsulfanylmethyl}-phosphonicacid] was tested, and the pIC50 was > 6.00.
For `COc1ccc(CC(=O)N[C@@H](CSCP(=O)(O)O)C(=O)N2CCCC[C@H]2C(=O)N[C@@H](Cc2ccc3ccccc3c2)C(N)=O)cc1` [Compound 36, {3-[2-(1-Carbamoyl-2-naphthalen-2-yl-ethylcarbamoyl)-piperidin-1-yl]-2-[2-(4-methoxy-phenyl)-acetylamino]-3-oxo-propylsulfanylmethyl}-phosphonicacid], the pIC50 was > 6.00.
With `O=C(NCc1ccccc1)[C@@H]1CCCCN1C(=O)CSCP(=O)(O)O` [Compound 66, [2-(2-Benzylcarbamoyl-piperidin-1-yl)-2-oxo-ethylsulfanylmethyl]-phosphonic acid] the pIC50 was 5.00 to 6.00.
`NC(=O)[C@H](Cc1ccc2ccccc2c1)NC(=O)[C@@H]1CCCCN1C(=O)[C@H](CSCP(=O)(O)O)NC(=O)CCc1ccccc1` [Compound 22, [3-[2-(1-Carbamoyl-2-naphthalen-2-yl-ethylcarbamoyl)-piperidin-1-yl]-3-oxo-2-(3-phenyl-propionylamino)-propylsulfanylmethyl]-phosphonicacid] was tested, and the pIC50 was > 6.00.
With `NC(=O)[C@H](Cc1ccc2ccccc2c1)NC(=O)[C@@H]1CCCCN1C(=O)[C@H](CSCP(=O)(O)O)NS(=O)(=O)CCc1ccccc1` [Compound 49, [3-[2-(1-Carbamoyl-2-naphthalen-2-yl-ethylcarbamoyl)-piperidin-1-yl]-3-oxo-2-(2-phenyl-ethanesulfonylamino)-propylsulfanylmethyl]-phosphonicacid] the pIC50 was > 6.00.
With `NC(=O)[C@H](Cc1ccc2ccccc2c1)NC(=O)[C@@H]1CCCCN1C(=O)[C@H](CSCP(=O)(O)O)NC(=O)CC1CCCCC1` [Compound 11, [3-[2-(1-Carbamoyl-2-naphthalen-2-yl-ethylcarbamoyl)-piperidin-1-yl]-2-(2-cyclohexyl-acetylamino)-3-oxo-propylsulfanylmethyl]-phosphonic acid] the pIC50 was 5.00 to 6.00.
`NC(=O)[C@H](Cc1ccc2ccccc2c1)NC(=O)[C@@H]1CCCCN1C(=O)CCSCP(=O)(O)O` [Compound 29, {3-[2-(1-Carbamoyl-2-naphthalen-2-yl-ethylcarbamoyl)-piperidin-1-yl]-3-oxo-propylsulfanylmethyl}-phosphonic acid] was tested, and the pIC50 was > 6.00.
`Cc1cc(C)c(S(=O)(=O)N[C@@H](CSCP(=O)(O)O)C(=O)N2CCCC[C@H]2C(=O)N[C@@H](Cc2ccc3ccccc3c2)C(N)=O)c(C)c1` [Compound 52, [3-[2-(1-Carbamoyl-2-naphthalen-2-yl-ethylcarbamoyl)-piperidin-1-yl]-3-oxo-2-(2.4.6-trimethyl-benzenesulfonylamino)-propylsulfanylmethyl]-phosphonicacid] gave a pIC50 of 5.00 to 6.00.
In the case of `COc1ccc(CCCC(=O)N[C@@H](CSCP(=O)(O)O)C(=O)N2CCCC[C@H]2C(=O)N[C@@H](Cc2ccc3ccccc3c2)C(N)=O)cc1` [Compound 38, {3-[2-(1-Carbamoyl-2-naphthalen-2-yl-ethylcarbamoyl)-piperidin-1-yl]-2-[4-(4-methoxy-phenyl)-butyrylamino]-3-oxo-propylsulfanylmethyl}-phosphonicacid], the pIC50 was > 6.00.
`CC(=O)N[C@@H](Cc1csc2ccccc12)C(=O)N[C@@H](CSCP(=O)(O)O)CN1CCCC[C@H]1C(=O)N[C@@H](Cc1ccc2ccccc2c1)C(N)=O` [Compound 25, {2-(2-Acetylamino-3-benzo[b]thiophen-3-yl-propionylamino)-3-[2-(1-carbamoyl-2-naphthalen-2-yl-ethylcarbamoyl)-piperidin-1-yl]-propylsulfanylmethyl}-phosphonicacid] was tested, and the pIC50 was > 6.00.
With `O=C(NCCc1ccc2ccccc2c1)[C@@H]1CCCCN1C(=O)CSCP(=O)(O)O` [Compound 59, {2-[2-(2-Naphthalen-2-yl-ethylcarbamoyl)-piperidin-1-yl]-2-oxo-ethylsulfanylmethyl}-phosphonic acid] the pIC50 was 5.00 to 6.00.
In the case of `COc1ccc(NC(=O)CC(SCP(=O)(O)O)C(=O)N2CCCC[C@H]2C(=O)N[C@@H](Cc2ccc3ccccc3c2)C(N)=O)cc1` (mixture of isomers) [Compound 70, {2-[2-(1-Carbamoyl-2-naphthalen-2-yl-ethylcarbamoyl)-piperidin-1-yl]-1-[(4-methoxy-phenyl-carbamoyl)-methyl]-2-oxo-ethylsulfanylmethyl}-phosphonicacid], the pIC50 was > 6.00.
For `NC(=O)[C@H](Cc1ccc2ccccc2c1)NC(=O)[C@@H]1CCCCN1CCSCP(=O)(O)O` [Compound 55, {2-[2-(1-Carbamoyl-2-naphthalen-2-yl-ethylcarbamoyl)-piperidin-1-yl]-ethylsulfanylmethyl}-phosphonic acid], the pIC50 was > 6.00.
In the case of `CC(=O)N[C@@H](Cc1csc2ccccc12)C(=O)N[C@@H](CSCP(=O)(O)O)C(=O)N(C)N(C)C(=O)N[C@@H](Cc1ccc2ccccc2c1)C(N)=O` [Compound 26, Ac-Bta-Cys(CH2—P(O)(OH)2)-NMeazaAla-2Nal-NH2], the pIC50 was > 6.00.
`O=C(NCCc1ccccc1)[C@@H]1CCCCN1C(=O)CSCP(=O)(O)O` [Compound 67, [2-Oxo-2-(2-phenethylcarbamoyl-piperidin-1-yl)-ethylsulfanylmethyl]-phosphonicacid] showed a pIC50 of 5.00 to 6.00.
